pIC50: −log10 of the molar value. Read-outs that look alike come from different tables or passages of the source.
Test system: amyloid-beta (1-42) peptide
Assay: ELISA assay of amyloid-beta (1-42) in conditioned media of 2B7 cells
Assay type: cell-based
Conditions: for pIC50: Aβ-42, 2B7 cells, 5 hours, read-out: IC50 range; for inhibition at 20 µM / inhibition at 10 µM / inhibition at 100 µM: read-out: % Inhibition (range); for inhibition at 10 µM: Aβ-42, 10 umol/L
Procedure, shortened: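 2B7 cells were treated with compounds for 5 hours at 37° C in media with 1% DMSO. Conditioned media, diluted 1:2 in blocking buffer, went into a sandwich ELISA with 6E10 capture and an HRP-labelled detection antibody, read by TMB at 450 nm. Values came from an Aβ peptide standard curve.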

CC(=O)O[C@@H]([C@H]1C[C@@H](C)[C@H]2[C@H](O1)[C@H](O)[C@@]1(C)[C@@H]3CC[C@H]4C(C)(C)C(OC(N)=O)CC[C@@]45C[C@@]35CC[C@]21C)C(C)(C)O (stereo partly drawn) [drawing 964]
pIC50 (5 h): ≥ 6.00

C[C@@H]1C[C@H]([C@H](OC(N)=O)C(C)(C)O)OC2C1[C@@]1(C)CC[C@@]34C[C@@]35CC[C@H](O)C(C)(C)[C@@H]5CC[C@H]4[C@]1(C)[C@H]2O (stereo partly drawn)
inhibition at 20 µM (Aβ-42, 20 umol/L): 25 to 75%

CC(=O)N(CC1CC(C)C2C(O1)C(O)C1(C)C3CCC4C(C)(C)C(OC(=O)c5cccnc5)CCC45CC35CCC21C)C(C)(C)C (stereo not drawn)
pIC50: < 5.00

CC(C)NC(=O)N(Cc1ccccc1)CC1CC(C)C2C(O1)C(O)C1(C)C3CCC4C(C)(C)C(O)CCC45CC35CCC21C (stereo not drawn)
pIC50: < 5.00

C[C@@H]1C=C(C(F)(F)F)OC2C[C@@]3(C)C4CCC5C(C)(C)[C@@H](O)CC[C@@]56C[C@@]46CC[C@]3(C)C21 (stereo partly drawn)
inhibition at 10 µM: 25 to 75%

CC1CC(C(O)C(C)(C)O)OC2C1C1(C)CCC34CC35CCC(OC3CN(C(=O)CN6CCOCC6)CCO3)C(C)(C)C5CCC4C1(C)C2O (stereo not drawn)
% Inhibition (range) (Aβ-42, 100 umol/L): F (% inhibition of <25%)

CC(=O)N(C)CC1CC(C)C2C(O1)C(O)C1(C)C3CCC4C(C)(C)C(O)CCC45CC35CCC21C (stereo not drawn)
pIC50: < 5.00

CC1CC(CN(CC(C)(C)O)S(C)(=O)=O)OC2C1C1(C)CCC34CC35CCC(O)C(C)(C)C5CCC4C1(C)C2O (stereo not drawn)
pIC50: < 5.00

CC1CC(C(O)C(C)(C)O)OC2C1C1(C)CCC34CC35CCC(OC3CN(C(=O)C6CCN(C)CC6)CCO3)C(C)(C)C5CCC4C1(C)C2O (stereo not drawn)
pIC50: 5.00 to 6.00

CC1CC(C(O)C(C)(C)O)OC2C1C1(C)CCC34CC35CCC(OC3CN(C(=O)C6CCC6)CCO3)C(C)(C)C5CCC4C1(C)C2O (stereo not drawn)
pIC50: > 5.00

CC1CC(C(O)C(C)(C)O)OC2C1C1(C)CCC34CC35CCC(OC3CN(C(=O)Cc6cc(F)cc(F)c6)CCO3)C(C)(C)C5CCC4C1(C)C2O (stereo not drawn)
% Inhibition (range) (Aβ-42, 20 umol/L): E E (% inhibition of 25-75%) | % Inhibition (range) (Aβ-42, 100 umol/L): E E (% inhibition of 25-75%)

C[C@@H]1C[C@H](C(=O)C(C)(C)O)OC2C1[C@@]1(C)CC[C@@]34C[C@@]35CC[C@H](O)C(C)(C)[C@@H]5CC[C@H]4[C@]1(C)[C@H]2O (stereo partly drawn)
inhibition at 20 µM (Aβ-42, 20 umol/L): < 25%

CC1CC(C(=O)NCc2ccccc2)OC2C1C1(C)CCC34CC35CCC(O)C(C)(C)C5CCC4C1(C)C2O (stereo not drawn)
pIC50: < 5.00

CC1CC(C(O)C(C)(C)O)OC2C1C1(C)CCC34CC35CCC(OC3CN(C(=O)c6ccc(F)cc6)CCO3)C(C)(C)C5CCC4C1(C)C2O (stereo not drawn)
pIC50: 5.00 to 6.00

CC(=O)O[C@@H]([C@H]1C[C@@H](C)C2C(O1)[C@H](O)[C@@]1(C)[C@@H]3CC[C@H]4C(C)(C)[C@@H](OC5CN(CC(=O)N(C)C)CCO5)CC[C@@]45C[C@@]35CC[C@]21C)C(C)(C)O (stereo partly drawn) [drawing 947]
pIC50 (5 h): ≥ 6.00

CC1COC2C[C@H]3[C@@H]4CCC5C[C@@H](O)CC[C@]5(C)[C@H]4CC[C@]3(C)C2[C@@H]1C (stereo partly drawn)
inhibition at 10 µM: < 25%

CC1CC(C(O)C(C)(C)O)OC2C1C1(C)CCC34CC35CCC(OC3CN(C(=O)CN6CCCC6)CCO3)C(C)(C)C5CCC4C1(C)C2O (stereo not drawn)
pIC50: 5.00 to 6.00

CC1CC(CN2C(=O)OCC2(C)C)OC2C1C1(C)CCC34CC35CCC(O)C(C)(C)C5CCC4C1(C)C2O (stereo not drawn)
pIC50: < 5.00

CC(=O)O[C@@H]([C@H]1C[C@@H](C)C2C(O1)[C@H](O)[C@@]1(C)[C@@H]3CC[C@H]4C(C)(C)[C@@H](O[C@@H]5OC[C@@H](O)[C@H](O)[C@H]5O)CC[C@@]45C[C@@]35CC[C@]21C)C(C)(C)O (stereo partly drawn) [drawing 891]
pIC50 (5 h): ≥ 6.00

CC(=O)N(CC1CC(C)C2C(O1)C(O)C1(C)C3CCC4C(C)(C)C(O)CCC45CC35CCC21C)C1COC1 (stereo not drawn)
pIC50: < 5.00

C[C@@H]1C[C@H]([C@H](O)C(C)(C)O)OC2C1[C@@]1(C)CC[C@@]34C[C@@]35CC[C@H](O)C(C)(C)[C@@H]5CC[C@H]4[C@]1(C)[C@H]2O (stereo partly drawn) [drawing 887]
inhibition at 10 µM: < 25% | pIC50: 5.00 to 6.00

CC1CC(C(O)C(C)(C)O)OC2C1C1(C)CCC34CC35CCC(OC3CN(C(=O)c6ccncc6)CCO3)C(C)(C)C5CCC4C1(C)C2O (stereo not drawn)
% Inhibition (range) (Aβ-42, 20 umol/L): E E (% inhibition of 25-75%) | % Inhibition (range) (Aβ-42, 100 umol/L): E E (% inhibition of 25-75%)

CC(=O)O[C@@H]([C@H]1C[C@@H](C)C2C(O1)[C@H](O)[C@@]1(C)[C@@H]3CC[C@H]4C(C)(C)[C@H](N5CCOCC5)CC[C@@]45C[C@@]35CC[C@]21C)C(C)(C)O (stereo partly drawn)
inhibition at 100 µM (Aβ-42, 100 umol/L): < 25%

CC(=O)N(Cc1cc(F)cc(F)c1)CC1CC(C)C2C(O1)C(O)C1(C)C3CCC4C(C)(C)C(OC(=O)c5ccccn5)CCC45CC35CCC21C (stereo not drawn)
pIC50: 5.00 to 6.00

CC1CC(C(=O)N2CCOCC2)OC2C1C1(C)CCC34CC35CCC(O)C(C)(C)C5CCC4C1(C)C2O (stereo not drawn)
pIC50: < 5.00

CNCC1CC(C)C2C(O1)C(O)C1(C)C3CCC4C(C)(C)C(OC5OCC(O)C(O)C5O)CCC45CC35CCC21C (stereo not drawn)
pIC50: < 5.00

CC(=O)O[C@@H]([C@H]1C[C@@H](C)[C@H]2[C@H](O1)[C@H](O)[C@@]1(C)[C@@H]3CC[C@H]4C(C)(C)C(OC(=O)C5CCCO5)CC[C@@]45C[C@@]35CC[C@]21C)C(C)(C)O (stereo partly drawn)
pIC50 (5 h): ≥ 6.00

COC(=O)C1CC(C)C2C(O1)C(O)C1(C)C3CCC4C(C)(C)C(O)CCC45CC35CCC21C (stereo not drawn)
pIC50: < 5.00

CC1CC(C(OC(=O)N(C)C)C(C)(C)O)OC2C1C1(C)CCC34CC35CCC(O)C(C)(C)C5CCC4C1(C)C2O (stereo not drawn) [drawing 862]
pIC50: < 5.00

CC(=O)O[C@@H]([C@H]1C[C@@H](C)[C@H]2[C@H](O1)[C@H](O)[C@@]1(C)[C@@H]3CC[C@H]4C(C)(C)C(OC(=O)[C@@H]5CCCN5)CC[C@@]45C[C@@]35CC[C@]21C)C(C)(C)O (stereo partly drawn)
pIC50 (5 h): ≥ 6.00

CC1CC(C(O)C(C)(C)O)OC2C1C1(C)CCC34CC35CCC(OC3CN(C(=O)C6CCCCC6)CCO3)C(C)(C)C5CCC4C1(C)C2O (stereo not drawn)
% Inhibition (range) (Aβ-42, 20 umol/L): E (% inhibition of 25-75%)

C[C@@H]1C[C@H]([C@H](O)C(C)(C)O)OC2C1[C@@]1(C)CC[C@@]34C[C@@]35CC[C@H](O)C(C)(C)[C@@H]5CC[C@H]4[C@]1(C)[C@H]2O (stereo partly drawn) [drawing 888]
inhibition at 100 µM (Aβ-42, 100 umol/L): 25 to 75%

CC1CC(C(=O)NC2CCC2)OC2C1C1(C)CCC34CC35CCC(O)C(C)(C)C5CCC4C1(C)C2O (stereo not drawn)
pIC50: < 5.00

C[C@@H]1C[C@H](C=O)OC2C1[C@@]1(C)CC[C@@]34C[C@@]35CC[C@H](O)C(C)(C)[C@@H]5CC[C@H]4[C@]1(C)[C@H]2O (stereo partly drawn)
inhibition at 100 µM (Aβ-42, 100 umol/L): < 25%

CC(=O)O[C@H]1CC[C@]23C[C@]24CC[C@]2(C)C5C(C[C@@]2(C)C4CCC3C1(C)C)OC(C(F)(F)F)=C[C@H]5C (stereo partly drawn)
inhibition at 10 µM: < 25%

CC(=O)N(Cc1ccccc1F)CC1CC(C)C2C(O1)C(O)C1(C)C3CCC4C(C)(C)C(O)CCC45CC35CCC21C (stereo not drawn)
pIC50: 5.00 to 6.00

CCC(=O)O[C@@H]([C@H]1C[C@@H](C)C2C(O1)[C@H](O)[C@@]1(C)[C@@H]3CC[C@H]4C(C)(C)[C@@H](O)CC[C@@]45C[C@@]35CC[C@]21C)C(C)(C)O (stereo partly drawn) [drawing 908]
pIC50 (5 h): < 5.00 | inhibition at 100 µM (Aβ-42, 100 umol/L): 25 to 75%

CC(=O)O[C@@H]([C@H]1C[C@@H](C)C2C(O1)[C@H](O)[C@@]1(C)[C@@H]3CC[C@H]4C(C)(C)[C@@H](O[C@H]5CNCCO5)CC[C@@]45C[C@@]35CC[C@]21C)C(C)(C)O (stereo partly drawn)
pIC50 (5 h): ≥ 6.00

CC(=O)O[C@@H]([C@H]1C[C@@H](C)C2C(O1)C(=O)[C@@]1(C)[C@@H]3CC[C@H]4C(C)(C)[C@@H](O[C@@H]5OC[C@@H](O)[C@H](O)[C@H]5O)CC[C@@]45C[C@@]35CC[C@]21C)C(C)(C)O (stereo partly drawn) [drawing 895]
pIC50 (5 h): < 6.00

CC1CC(C(O)C(C)(C)O)OC2C1C1(C)CCC34CC35CCC(OC3CN(C6CCOC6)CCO3)C(C)(C)C5CCC4C1(C)C2O (single isomer, unassigned) [drawing 1105]
% Inhibition (range) (Aβ-42, 20 umol/L): F (% inhibition of <25%)

CC1CC(C(O)C(C)(C)O)OC2C1C1(C)CCC34CC35CCC(OC3CN(CCC(=O)O)CCO3)C(C)(C)C5CCC4C1(C)C2O (stereo not drawn)
% Inhibition (range) (Aβ-42, 20 umol/L): E E (% inhibition of 25-75%) | % Inhibition (range) (Aβ-42, 100 umol/L): E E (% inhibition of 25-75%)

CC1CC(c2nnco2)OC2C1C1(C)CCC34CC35CCC(O)C(C)(C)C5CCC4C1(C)C2O (stereo not drawn)
pIC50: < 5.00

CC1CC(C(O)C(C)(C)O)OC2C1C1(C)CCC34CC35CCC(OC3CN(C(=O)c6ccccn6)CCO3)C(C)(C)C5CCC4C1(C)C2O (stereo not drawn)
pIC50: < 5.00

C[C@@H]1C[C@H]([C@H](O)C(C)(C)O)OC2C1[C@@]1(C)CC[C@@]34C[C@@]35CC[C@H](O)C(C)(C)[C@@H]5CC[C@H]4[C@]1(C)[C@H]2O (stereo partly drawn) [drawing 889]
inhibition at 20 µM (Aβ-42, 20 umol/L): < 25% | pIC50: < 5.00

COCO[C@@H]([C@H]1C[C@@H](C)C2=C(O1)[C@H](O)[C@@]1(C)[C@@H]3CC[C@H]4C(C)(C)[C@@H](O[C@@H]5OC[C@@H](O)[C@H](O)[C@H]5O)CC[C@@]45C[C@@]35CC[C@]21C)C(C)(C)O
pIC50 (5 h): 5.00 to 6.00

CC1CC(C(O)C(C)(C)O)OC2C1C1(C)CCC34CC35CCC(OC3CN(C(=O)CC6CCCCC6)CCO3)C(C)(C)C5CCC4C1(C)C2O (stereo not drawn)
pIC50: ≥ 6.00

CC1CC(C(O)C(C)(C)O)OC2C1C1(C)CCC34CC35CCC(OC3CN(C(=O)c6cccnc6)CCO3)C(C)(C)C5CCC4C1(C)C2O (stereo not drawn)
% Inhibition (range) (Aβ-42, 100 umol/L): F (% inhibition of <25%)

CC(=O)OC(C1CC(C)C2C(O1)C(OC(=O)C(F)(F)F)C1(C)C3CCC4C(C)(C)C(OC(=O)C(F)(F)F)CCC45CC35CCC21C)C(C)(C)O (stereo not drawn)
pIC50: ≥ 6.00

C[C@@H]1C[C@H]([C@H](O)C(C)(C)O)O[C@H]2[C@H]1[C@@]1(C)CC[C@@]34C[C@@]35CC[C@H](O[C@H]3CN(CC(N)=O)CCO3)C(C)(C)[C@@H]5CC[C@H]4[C@]1(C)[C@H]2O
pIC50 (5 h): < 5.00 | inhibition at 20 µM (Aβ-42, 20 umol/L): < 25%

C[C@@H]1C[C@H]([C@H](O)C(C)(C)O)OC2C1[C@@]1(C)CC[C@@]34C[C@@]35CC[C@H](O)C(C)(C)[C@@H]5CC[C@H]4[C@]1(C)[C@H]2O (stereo partly drawn) [drawing 890]
% Inhibition (range) (Aβ-42, 20 umol/L): E (% inhibition of 25-75%)
